The values that follow come from patent publication US20240409536A1, “COMPOUNDS AND METHODS FOR MODULATING SPLICING” (REMIX THERAPEUTICS INC., priority 2021, published 2024).

What is called IC50 is the concentration that gives 50% inhibition.

Where only a bound is given, the exact number is not on record here.

The test system of series [1] is SMN2 mRNA. Briefly: Gene panel canonical junction qPCR assay, SMN2 CJ mRNA decrease. The format is cell-based, human. The following applies: Homo sapiens, canonical junction qPCR, read-out: SMN2 IC50 (decrease in CJ mRNA levels). In short, it runs like this:
(§1)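 IC50 values describe loss of canonical-junction transcript, fitted by 4-parameter logistic to percent response derived from fixed ΔCt windows. Read-out: RT-qPCR on lysates of compound-treated K562 or A673 cells, probes overlapping the exon junction, ΔΔCt versus housekeeping gene and DMSO control.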

Series [2] has as its system Target C. Briefly: HiBiT protein abundance assay, Target C (K562 HiBiT knock-in cells). It is filed as cell-based, human. As to conditions: 24 hours. An outline of the steps:
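K562 knock-in cells (10000/well, IMDM+1% FBS) treated 24 h at 37 °C with 10-point 3-fold dilutions, top final 10 μM, DMSO ≤0.25%. HiBiT lytic luminescence read; response normalized to unmodified K562 and DMSO-treated controls. IC50 interpolated at 50% abundance by four-parameter logistic fit.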

Series [3] relates to MYB mRNA. Briefly: Gene panel canonical junction qPCR assay, MYB CJ mRNA decrease. The format is cell-based, human. As to conditions: Homo sapiens, canonical junction qPCR, read-out: MYB IC50 (decrease in CJ mRNA levels). An outline of the steps: as §1
On the technique in general: Real-time PCR tracks product formation cycle by cycle.

For series [4], the system named is HTT mRNA. Briefly: Gene panel canonical junction qPCR assay, HTT CJ mRNA decrease. It is filed as cell-based, human. As to conditions: Homo sapiens, canonical junction qPCR, read-out: HTT IC50 (decrease in CJ mRNA levels). In short, it runs like this: as §1
For series [5], the system named is HiBiT-tagged MYB protein. Briefly: HiBiT protein abundance assay, MYB (K562 HiBiT knock-in cells). The format is cell-based, human. As to conditions: 24 hours. In short, it runs like this: (§2)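 K562 cells with endogenous HiBiT knock-in tag, 10-point 3-fold dilutions (top 10 μM final, ≤0.25% DMSO), 24 h at 37 °C. Lytic Nano-Glo HiBiT luminescence, normalized to DMSO and unmodified K562 baselines; IC50 is concentration giving 50% protein abundance from four-parameter fit.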
(HiBiT is a short tag that completes a luciferase, so light tracks the accessible tagged protein.)

Series [6] relates to HiBiT-tagged HTT protein. Briefly: HiBiT protein abundance assay, HTT (K562 HiBiT knock-in cells). It is filed as cell-based, human. As to conditions: 24 hours. In short, it runs like this:
as §2

Series [7] relates to K562 cells. Briefly: Cell Titer Glo 2.0 cell viability assay in K562 cells. The following applies: 72 hours. On the technique in general: Cellular ATP, detected with luciferase, serves as a proxy for viable cell number.

Regarding `Cc1cn2cc(NC(=O)c3ccc([C@@]45CCNCC4C5)c4nccnc34)cc(F)c2n1` (stereo in doubt) [Compound 248, 8-{3-azabicyclo[4.1.0]heptan-6-yl}-N-{8-fluoro-2-methylimidazo[1,2-a]pyridin-6-yl}quinoxaline-5-carboxamide 2,2,2-trifluoroacetate], the IC50 was less than 100 nM in series [1]; greater than 10000 nM in series [2]; 100 to 1000 nM in series [3]; 1000 to 10000 nM in series [4]; 100 to 1000 nM in series [5]; 1000 to 10000 nM in series [6]. Further, the Viability result in series [7] is “B (B represents 100-1000 nM)”.
Take `Cc1cn2cc(NC(=O)c3ccc(N4CCNCC4)c4nccnc34)cc(F)c2n1` [Compound 111]: the IC50 in series [1] was less than 100 nM; in series [2], 1000 to 10000 nM; in series [3] it was 100 to 1000 nM; in series [4], 1000 to 10000 nM; in series [5] it was less than 100 nM; in series [6] it was 100 to 1000 nM. For the same compound, in series [7], the Viability entry was “B (B represents 100-1000 nM)”.
On to `Cc1cn2nc(NC(=O)c3ccc(C4CCNCC4)c4ccnnc34)cc(C)c2n1` [Compound 113], for which the IC50 in series [1] lay within 100 to 1000 nM; in series [2], 1000 to 10000 nM; in series [3], 1000 to 10000 nM; in series [4], 1000 to 10000 nM; in series [5], 1000 to 10000 nM; in series [6], 1000 to 10000 nM.
Regarding `Cn1cc2ccc(NC(=O)c3ccc(N4CCNCC4)c4ccnnc34)cc2n1` [Compound 115], the IC50 in series [1], in series [2], in series [3], in series [4], in series [5] and in series [6] was greater than 10000 nM in each case. The Viability entry in series [7] is listed as “D (D represents greater than 10 μM in K562 cells)”.
With `Cn1cc2c(F)cc(NC(=O)c3ccc(N4CCNCC4)c4ccnnc34)cc2n1` [Compound 116], the IC50 in series [1], in series [2], in series [3], in series [4], in series [5] and in series [6] was greater than 10000 nM in each case. Also, in series [7], the Viability result was “C (C represents 1000-9999 nM)”.
As to `Cc1nc2c(F)cc(NC(=O)c3ccc(N4CCNCC4)c4ccnnc34)cc2s1` [Compound 118], the half-inhibitory concentration (IC50) was less than 100 nM in series [1]; 100 to 1000 nM in series [2]; 100 to 1000 nM in series [3]; 100 to 1000 nM in series [4]; less than 100 nM in series [5]; 100 to 1000 nM in series [6]. Also, in series [7], the Viability entry was “A (A represents <100 nM)”.
For the compound `Cc1cn2cc(NC(=O)c3ccc(N4CCNCC4)c4ccnnc34)c(C)cc2n1` [Compound 119], the IC50 in series [1] is less than 100 nM; in series [2], 1000 to 10000 nM; in series [3], 1000 to 10000 nM; in series [4], 1000 to 10000 nM; in series [5] it was 100 to 1000 nM; in series [6], 1000 to 10000 nM. In series [7], the Viability result is listed as “B (B represents 100-1000 nM)”.
For the compound `Cc1cn2cc(NC(=O)c3ccc(N4CCNCC4)c4ccnnc34)ncc2n1` [Compound 120], the IC50 in series [1] was less than 100 nM; in series [2], greater than 10000 nM; in series [3] it was 100 to 1000 nM; in series [4], greater than 10000 nM; in series [5], 100 to 1000 nM; in series [6], greater than 10000 nM. Moreover, the Viability entry in series [7] is on record as “C (C represents 1000-9999 nM)”.
On to `CNC1CCN(c2ccc(C(=O)Nc3cc(F)c4nc(C)cn4c3)c3nc(OCCOC)ccc23)C1` (centres unmarked) [Compound 234], for which the IC50 was less than 100 nM in series [1]; 1000 to 10000 nM in series [2]; 100 to 1000 nM in series [3]; 1000 to 10000 nM in series [4]; less than 100 nM in series [5]; 1000 to 10000 nM in series [6]. In series [7], the Viability entry was “B (B represents 100-1000 nM)”.
`Cc1cn2cc(NC(=O)c3ccc(C4=CCNCC4)c4nccnc34)cc(F)c2n1` [Compound 240, N-{8-fluoro-2-methylimidazo[1,2-a]pyridin-6-yl}-8-(1,2,3,6-tetrahydropyridin-4-yl)quinoxaline-5-carboxamide]: the IC50 in series [1] is less than 100 nM; in series [2], 100 to 1000 nM; in series [3], less than 100 nM; in series [4], less than 100 nM; in series [5], less than 100 nM; in series [6] it was less than 100 nM.
For `Cc1cn2cc(NC(=O)c3ccc(N4C5CNCC54)c4nccnc34)cc(F)c2n1` (centres unmarked) [Compound 262, 8-{3,6-diazabicyclo[3.1.0]hexan-6-yl}-N-{8-fluoro-2-methylimidazo[1,2-a]pyridin-6-yl}quinoxaline-5-carboxamide], the half-maximal inhibitory concentration (IC50) in series [1] is less than 100 nM; in series [2], 100 to 1000 nM; in series [3], 100 to 1000 nM; in series [4], 100 to 1000 nM; in series [5], 100 to 1000 nM; in series [6] it was 100 to 1000 nM.
With `Cc1cn2cc(NC(=O)c3ccc(N4C[C@@H](C)N[C@@H](C)C4)c4ncc(O)nc34)cc(F)c2n1` [Compound 275], the IC50 in series [1], in series [2], in series [3], in series [4], in series [5] and in series [6] was greater than 10000 nM throughout.
Regarding `Cc1cn2cc(NC(=O)c3ccc(N4C[C@@H](C)N[C@@H](C)C4)c4nccnc34)nc(Cl)c2n1` [Compound 279], the IC50 was less than 100 nM in series [1]; greater than 10000 nM in series [2]; less than 100 nM in series [3]; greater than 10000 nM in series [4]; less than 100 nM in series [5]; 1000 to 10000 nM in series [6].
As to `COc1ncc2c(N3C[C@@H](C)N[C@@H](C)C3)ccc(C(=O)Nc3cc(F)c4nc(C)cn4c3)c2n1` [Compound 300], the IC50 in series [1] was less than 100 nM; in series [2], 100 to 1000 nM; in series [3], less than 100 nM; in series [4] it was 100 to 1000 nM; in series [5], less than 100 nM; in series [6], 100 to 1000 nM.
Take `Cc1cn2cc(NC(=O)c3ccc(N4C[C@@H](C)N[C@H](C)C4)c4nccnc34)cc(F)c2n1` [Compound 312]: the IC50 in series [1] is less than 100 nM; in series [2], 1000 to 10000 nM; in series [3], less than 100 nM; in series [4], 1000 to 10000 nM; in series [5], less than 100 nM; in series [6], 1000 to 10000 nM.
For the compound `Cc1cn2cc(NC(=O)c3ccc(N4C[C@H](C)N[C@@H](C)C4)c4nccnc34)cc(F)c2n1` [Compound 313], the IC50 in series [1] was less than 100 nM; in series [2], 1000 to 10000 nM; in series [3], less than 100 nM; in series [4], 1000 to 10000 nM; in series [5], less than 100 nM; in series [6] it was 100 to 1000 nM.
On to `C[C@@H]1CN(c2ccc(C(=O)Nc3cc(F)c4nn(C)cc4c3)c3nccnc23)C[C@@H](C)N1` [Compound 335], for which the IC50 in series [1] is less than 100 nM; in series [2], 1000 to 10000 nM; in series [3], 100 to 1000 nM; in series [4], 1000 to 10000 nM; in series [5] it was 100 to 1000 nM; in series [6], 1000 to 10000 nM.
On to `Cc1cn2cc(NC(=O)c3ccc(N4C[C@@H](C)N(O)[C@@H](C)C4)c4nccnc34)cc(F)c2n1` [Compound 355], for which the IC50 is less than 100 nM in series [1]; 1000 to 10000 nM in series [2]; 100 to 1000 nM in series [3]; greater than 10000 nM in series [4]; 100 to 1000 nM in series [5]; 1000 to 10000 nM in series [6].
